{
  "source": "patent US10307498B2",
  "about": "“Cleaning and disinfecting composition” (American Sterilizer Company, priority 2015, dated 2019)",
  "assay": "Stability of peracetic acid over a single disinfection cycle at different disinfection solution temperatures, FIGS. 4A-4D",
  "format": "physicochemical",
  "settings": "PAA alone or combined with builders/part (B)",
  "description": "FIGS. 4A-4D are graphs that show the stability of peracetic acid over the time required for a single disinfection cycle, at different disinfection solution temperatures, and as a function of the presence or absence of two different builders formulations as well as the supplemental medium (B) of the present invention.\nIn the following Examples 6-8, parts (A) and (B) are as described above for Examples 1-5. Builders 1 contains two sodium phosphates, benzotriazole, tetrasodium ethylene diamine tetraacetate, a sodium molybdate, sodium hydroxide, an ethoxylated polyoxypropylene, a polyacrylate, a sodium phosphate, and water. Builders 2 contains a sodium phosphate, a sodium benzotriazole and a sodium salt of ethylene diamine tetraacetic acid.\nFIGS. 4A-4D show the stability of peracetic acid over the time required for a single disinfection cycle (stability), at different disinfection solution temperatures when used alone (FIG. 4A), or in combination with prior art Builders 1 (FIG. 4B) or Builders 2 (FIG. 4C) or the supplemental medium part (B) of the present invention (FIG. 4D). The trend of each line can be used to understand the kinetics of stability (or conversely, the rate and amount of degradation of PAA). […]",
  "data": [
    {"smiles": "CC(=O)OO", "note": "[PAA, peracetic acid]", "values": [
      {"measurement": "stability of PAA solution", "result": "relatively stable"}
    ]}
  ]
}
